Assays:
[1] = Stability of modifications suspended in solvent (conversion of crystal modification); assay type: physicochemical
Procedure: (§1) Studies on the Stability of the modifications of compound of formula (I)
A mixture of forms A and B was suspended in ethanol at 25° C.
Form C.II.1 (consisting of 30 wt. % of form A and 70 wt. % of form D) was suspended in ethanol at 25° C.
Form C.II.1 (consisting of 30 wt. % of form A and 70 wt. % of form D) was suspended in iso-propanol at 25° C.
Form CII.1 (consisting of 30 wt. % of form A and 70 wt. % of form D) was suspended in iso-propanol at 50° C.

[2] = Storage stability of dry powder at room temperature (conversion of crystal modification); assay type: physicochemical; conditions: about 6 weeks
Excerpt: as §1

**Q.** Which “Stability of the modification: phase conversion in suspension” value (shortened to “Stability … in suspension”) ([1]; suspended in ethanol at 25° C., after 5 days) does the source give for `CCOC(=O)COc1ncccc1Oc1cc(-n2c(=O)cc(C(F)(F)F)n(C)c2=O)c(F)cc1Cl` [mixture of forms A and B] here?
**A.** converted into form A

**Q.** Which “Stability … in suspension” value ([1]; suspended in ethanol at 25° C., after 7 days) does the source give for `CCOC(=O)COc1ncccc1Oc1cc(-n2c(=O)cc(C(F)(F)F)n(C)c2=O)c(F)cc1Cl` [Form C.II.1] here?
**A.** converted into form A

**Q.** And the “Stability … in suspension” value ([1]; suspended in iso-propanol at 25° C., after 7 days)?
**A.** converted into form A

**Q.** What about the “Stability … in suspension” value ([1]; suspended in iso-propanol at 50° C., after 7 days) of the same compound?
**A.** converted into form A

**Q.** For `CCOC(=O)COc1ncccc1Oc1cc(-n2c(=O)cc(C(F)(F)F)n(C)c2=O)c(F)cc1Cl` [form B, ethyl[3-[2-chloro-4-fluoro-5-(1-methyl-6-trifluoromethyl-2,4-dioxo-1,2,3,4-tetrahydropyrimidin-3-yl)phenoxy]-2-pyridyloxy]acetate], which “Stability of the modification: phase conversion during storage” value [2] is on record?
**A.** converts partially into form A

From patent US11311014B2, “Crystalline forms of ethyl[3-[2-chloro-4-fluoro-5-(1-methyl-6-trifluoromethyl-2,4-dioxo-1,2,3,4-tetrahydropyrimidin-3-yl)phenoxy]-2-pyridyloxy]acetate” (BASF SE, priority 2017, dated 2022)
